# Results as given in patent US9656971B2, “COMT inhibitors” (Hoffmann-La Roche Inc., priority 2012, dated 2017).
# Where a name gives a salt, the structure may show the parent alone.
# Molecular target: T1, Rec. human COMT (Homo sapiens, UniProt P21964)
# T1 sequence (P21964 1-271): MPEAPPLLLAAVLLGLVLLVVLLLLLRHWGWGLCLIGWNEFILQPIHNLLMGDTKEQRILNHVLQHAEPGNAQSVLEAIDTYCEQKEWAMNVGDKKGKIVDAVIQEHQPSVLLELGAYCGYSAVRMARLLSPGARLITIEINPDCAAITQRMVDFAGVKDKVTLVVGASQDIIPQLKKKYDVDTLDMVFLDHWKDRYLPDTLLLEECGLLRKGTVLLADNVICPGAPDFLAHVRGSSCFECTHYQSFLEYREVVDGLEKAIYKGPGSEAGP
# Experiment: COMT-Fluorescence Assay
# Type: biochemical
# Settings: COMT-fluorescence assay, rec. human COMT 25 nM, 4-Nitrocatechol-Alexa488 200 nM, SAM 500 nM; read-out: IC50
# Protocol: This intramolecular interaction is disturbed if the 4-Nitrocatechol is methylated. […] This increase of fluorescence intensity can be followed in a kinetic measurement. The slope in the linear range of the kinetic is calculated. An inhibitor compound decreases the slope.
# Signal [rfu/min]=(rfu(end-point)−rfu(startpoint))/incubation_time_#2
row,IC50,SMILES
1,1100 nM,"CC(C)Cc1cc(O)c2nc[nH]c(=O)c2c1 [Example 17, 8-Hydroxy-6-isobutylquinazolin-4(3H)-one]"
2,50 nM,"N#CCc1ccccc1-c1cc(O)c2nc[nH]c(=O)c2c1 [Example 208, 2-(2-(8-Hydroxy-4-oxo-3,4-dihydroquinazolin-6-yl)phenyl)acetonitrile]"
3,120 nM,"O=c1[nH]cnc2c(O)cc(-c3ccccc3CO)c(Cl)c12 [Example 255, 5-Chloro-8-hydroxy-6-(2-hydroxymethyl-phenyl)-3H-quinazolin-4-one]"
4,190 nM,"O=c1[nH]cnc2c(O)cc(-c3cncnc3)cc12 [Example 153, 8-Hydroxy-6-(pyrimidin-5-yl)quinazolin-4(3H)-one 2,2,2-trifluoroacetate]"
5,50 nM,"CN(C)CCNC(=O)c1ccc(-c2cc(O)c3nc[nH]c(=O)c3c2)cc1 [Example 173, N-(2-(Dimethylamino)ethyl)-4-(8-hydroxy-4-oxo-3,4-dihydroquinazolin-6-yl)benzamide]"
6,50 nM,"CN(C)S(=O)(=O)n1cnc(-c2cc(O)c3nc[nH]c(=O)c3c2)c1 [Example 77, 4-(8-Hydroxy-4-oxo-3,4-dihydroquinazolin-6-yl)-N,N-dimethyl-1H-imidazole-1-sulfonamide]"
7,40 nM,"O=c1[nH]cnc2c(O)cc(-c3ccc(F)cc3)c(C(F)(F)F)c12 [Example 43, 6-(4-Fluorophenyl)-8-hydroxy-5-(trifluoromethyl)quinazolin-4(3H)-one]"
8,250 nM,"O=C(c1cccnc1)c1cc(O)c2nc[nH]c(=O)c2c1 [Example 74, 8-Hydroxy-6-nicotinoylquinazolin-4(3H)-one]"
9,20 nM,"CN1CCN(C(=O)c2cc(-c3cc(O)c4nc[nH]c(=O)c4c3)n(C)n2)CC1 [Example 230, 8-Hydroxy-6-(1-methyl-3-(4-methylpiperazine-1-carbonyl)-1H-pyrazol-5-yl)quinazolin-4(3H)-one formate]"
10,230 nM,"Cc1ncc(-c2cc(O)c3nc[nH]c(=O)c3c2)n1C [Example 87, 6-(1,2-Dimethyl-1H-imidazol-5-yl)-8-hydroxyquinazolin-4(3H)-one]"
11,10 nM,"N#Cc1ccc(-c2c(-c3ccc(F)cc3)cc(O)c3nc[nH]c(=O)c23)cc1 [Example 64, 4-[6-(4-Fluoro-phenyl)-8-hydroxy-4-oxo-3,4-dihydro-quinazolin-5-yl]-benzonitrile]"
12,70 nM,"O=c1[nH]cnc2c(O)cc(-c3ccccc3OC(F)(F)F)cc12 [Example 145, 8-Hydroxy-6-(2-trifluoromethoxy-phenyl)-3H-quinazolin-4-one]"
13,60 nM,"N#Cc1c(-c2ccc(F)cc2)cc(O)c2nc[nH]c(=O)c12 [Example 54, 6-(4-Fluorophenyl)-8-hydroxy-4-oxo-3,4-dihydroquinazoline-5-carbonitrile]"
14,30 nM,"Cn1ncc2cc(-c3cc(O)c4nc[nH]c(=O)c4c3)ccc21 [Example 96, 8-Hydroxy-6-(1-methyl-1H-indazol-5-yl)quinazolin-4(3H)-one]"
15,10 nM,"O=c1[nH]cnc2c(O)c(F)c(-c3ccc(F)cc3)c(-c3ccc(F)cc3)c12 [Example 123, 7-Fluoro-5,6-bis(4-fluorophenyl)-8-hydroxyquinazolin-4(3H)-one]"
16,740 nM,"O=c1[nH]cnc2c(O)cc(-c3ccccc3S(=O)(=O)N3CCCCC3)cc12 [Example 251, 8-Hydroxy-6-[2-(piperidine-1-sulfonyl)-phenyl]-3H-quinazolin-4-one]"
17,20 nM,"O=c1[nH]cnc2c(O)cc(-c3ccc(-c4ccccn4)s3)cc12 [Example 89, 8-Hydroxy-6-(5-(pyridin-2-yl)thiophen-2-yl)quinazolin-4(3H)-one]"
18,2800 nM,"CN(C)c1ccc(/N=N/c2ccccc2)c(-c2cc(O)c3nc[nH]c(=O)c3c2)c1 [Example 29, (E)-6-(5-(Dimethylamino)-2-(phenyldiazenyl)phenyl)-8-hydroxyquinazolin-4(3H)-one]"
19,1140 nM,"CN(C)S(=O)(=O)c1ccccc1-c1cc(O)c2nc[nH]c(=O)c2c1 [Example 250, 2-(8-Hydroxy-4-oxo-3,4-dihydro-quinazolin-6-yl)-N,N-dimethyl-benzenesulfonamide]"
20,730 nM,"O=C(c1ccccc1-c1cc(O)c2nc[nH]c(=O)c2c1)N1CCS(=O)(=O)CC1 [Example 194, 6-[2-(1,1-Dioxo-1λ^6-thiomorpholine-4-carbonyl)-phenyl]-8-hydroxy-3H-quinazolin-4-one]"
21,20 nM,"O=c1[nH]cnc2c(O)cc(-c3ccc(N4CCNCC4)nc3)cc12 [Example 184, 8-Hydroxy-6-(6-(piperazin-1-yl)pyridin-3-yl)quinazolin-4(3H)-one]"

row,IC50,SMILES
1,40 nM,"N#Cc1ccc(Cl)c(-c2cc(O)c3nc[nH]c(=O)c3c2)c1 [Example 27, 4-Chloro-3-(8-hydroxy-4-oxo-3,4-dihydroquinazolin-6-yl)benzonitrile]"
2,30 nM,"O=c1[nH]cnc2c(O)c(F)c(-c3ccccc3)c(F)c12 [Example 38, 5,7-Difluoro-8-hydroxy-6-phenylquinazolin-4(3H)-one]"
3,10 nM,"O=c1[nH]cnc2c(O)cc(-c3ccc(F)cc3)c(F)c12 [Example 195, 5-Fluoro-6-(4-fluorophenyl)-8-hydroxyquinazolin-4(3H)-one]"
4,200 nM,"O=c1[nH]cnc2c(O)c(F)cc(-c3ccc(F)cc3)c12 [Example 124, 7-Fluoro-5-(4-fluorophenyl)-8-hydroxyquinazolin-4(3H)-one]"
5,30 nM,"Cc1ccccc1-c1cc(O)c2nc[nH]c(=O)c2c1 [Example 210, 8-Hydroxy-6-o-tolylquinazolin-4(3H)-one]"
6,60 nM,"O=c1[nH]cnc2c(O)cc(-c3cnsc3)cc12 [Example 92, 8-Hydroxy-6-(isothiazol-4-yl)quinazolin-4(3H)-one]"
7,4900 nM,"COc1ccccc1Cc1cc(O)c2nc[nH]c(=O)c2c1 [Example 14, 8-Hydroxy-6-(2-methoxybenzyl)quinazolin-4(3H)-one]"
8,10 nM,"Cc1ncccc1-c1cc(O)c2nc[nH]c(=O)c2c1F [Example 198, 5-Fluoro-8-hydroxy-6-(2-methylpyridin-3-yl)quinazolin-4(3H)-one]"
9,50 nM,"O=c1[nH]cnc2c(O)cc(-c3ccc(Br)nc3)cc12 [Example 144, 6-(6-Bromo-pyridin-3-yl)-8-hydroxy-3H-quinazolin-4-one]"
10,40 nM,"O=c1[nH]cnc2c(O)cc(-c3cccc(N4CCCC4)n3)cc12 [Example 63, 8-Hydroxy-6-(6-(pyrrolidin-1-yl)pyridin-2-yl)quinazolin-4(3H)-one]"
11,270 nM,"O=c1[nH]cnc2c(O)cc(-c3cccnc3O)cc12 [Example 180, 8-Hydroxy-6-(2-hydroxypyridin-3-yl)quinazolin-4(3H)-one]"
12,20 nM,"CN(C)c1ccc(-c2cc(O)c3nc[nH]c(=O)c3c2)cn1 [Example 60, 6-(6-(Dimethylamino)pyridin-3-yl)-8-hydroxyquinazolin-4(3H)-one 1:1 salt with trifluoroacetate]"
13,10 nM,"CN(C)c1cccc(-c2cc(O)c3nc[nH]c(=O)c3c2)c1 [Example 148, 6-(3-Dimethylamino-phenyl)-8-hydroxy-3H-quinazolin-4-one]"
14,20 nM,"COCc1ncccc1-c1cc(O)c2nc[nH]c(=O)c2c1 [Example 110, 8-Hydroxy-6-(2-(methoxymethyl)pyridin-3-yl)quinazolin-4(3H)-one bis(2,2,2-trifluoroacetate)]"
15,20 nM,"O=C(c1cccc(-c2cc(O)c3nc[nH]c(=O)c3c2)c1)N1CCS(=O)(=O)CC1 [Example 192, 6-[3-(1,1-Dioxo-1λ^6-thiomorpholine-4-carbonyl)-phenyl]-8-hydroxy-3H-quinazolin-4-one]"
16,100 nM,"Cc1ccc(C(=O)c2cc(O)c3nc[nH]c(=O)c3c2)cc1 [Example 66, 8-Hydroxy-6-(4-methylbenzoyl)quinazolin-4(3H)-one]"
17,840 nM,"O=c1[nH]cnc2c(O)cc(Oc3ccc(F)cc3)cc12 [Example 189, 6-(4-Fluorophenoxy)-8-hydroxyquinazolin-4(3H)-one]"
18,80 nM,"CC(C)N1CCc2c(cccc2-c2cc(O)c3nc[nH]c(=O)c3c2)C1 [Example 108, 8-Hydroxy-6-(2-isopropyl-1,2,3,4-tetrahydroisoquinolin-5-yl)quinazolin-4(3H)-one 2,2,2-trifluoroacetate]"
19,60 nM,"O=c1[nH]cnc2c(O)cc(I)cc12 [Example 137, 8-Hydroxy-6-iodo-3H-quinazolin-4-one]"
20,1000 nM,"CC(C)c1cc(O)c2nc[nH]c(=O)c2c1 [Example 13, 8-Hydroxy-6-isopropylquinazolin-4(3H)-one]"
21,50 nM,"CCc1ccccc1-c1cc(O)c2nc[nH]c(=O)c2c1 [Example 217, 6-(2-Ethylphenyl)-8-hydroxyquinazolin-4(3H)-one]"

# Same assay, conditions: IC50, COMT-fluorescence assay, rec. human COMT 25 nM, 4-Nitrocatechol-Alexa488 200 nM, SAM 500 nM
row,IC50,SMILES
1,220 nM,"O=c1[nH]cnc2c(O)cc(-c3ccccc3N3CCOCC3)cc12 [Example 224, 8-Hydroxy-6-(2-morpholinophenyl)quinazolin-4(3H)-one]"
2,40 nM,"O=c1[nH]cnc2c(O)cc(-c3cc(F)c(F)c(F)c3)cc12 [Example 28, 8-Hydroxy-6-(3,4,5-trifluorophenyl)quinazolin-4(3H)-one]"
3,20 nM,"O=c1[nH]cnc2c(O)cc(-c3c(F)c(F)c(F)c(F)c3F)cc12 [Example 33, 8-Hydroxy-6-(perfluorophenyl)quinazolin-4(3H)-one]"
4,30 nM,"O=c1[nH]cnc2c(O)cc(-c3ccc(O)cc3)cc12 [Example 129, 8-Hydroxy-6-(4-hydroxyphenyl)quinazolin-4(3H)-one]"
